This experiment relates to BDF1 mice, s.c. Lewis lung carcinoma, T/C %. In words: NCI In Vivo Anticancer Drug Screen. Data for tumor model Lewis Lung Carcinoma (subcutaneous) in B6D2F1 (BDF1) mice. On the procedure: The antitumor activity of compounds was measured in mice bearing transplantable tumors. Survival or tumor size were measured and the results are expressed as the measurement made in the treated group (T) divided by the measurement made in the vehicle treated control group (C). The tumor model used in this assay is Lewis Lung Carcinoma (subcutaneous) in B6D2F1 (BDF1) mice

Where [1] appears, read: endpoint: median survival time, dose: 5.0 mg/kg/injection, schedule: Q01DX009 (ip), vehicle: saline, higher = longer survival.
Setting [2] is: endpoint: median survival time, dose: 10.0 mg/kg/injection, schedule: Q01DX009 (ip), vehicle: saline, higher = longer survival.
[3] abbreviates: endpoint: median survival time, dose: 20.0 mg/kg/injection, schedule: Q01DX009 (ip), vehicle: saline, higher = longer survival.
Where [4] appears, read: endpoint: median survival time, dose: 6.25 mg/kg/injection, schedule: Q01DX009 (ip), vehicle: Klucel (hydroxypropylcellulose) (HPC), higher = longer survival.
Where [5] appears, read: endpoint: median survival time, dose: 12.5 mg/kg/injection, schedule: Q01DX009 (ip), vehicle: Klucel (hydroxypropylcellulose) (HPC), higher = longer survival.
Setting [6] is: endpoint: median survival time, dose: 25.0 mg/kg/injection, schedule: Q01DX009 (ip), vehicle: Klucel (hydroxypropylcellulose) (HPC), higher = longer survival.

Where “and” joins values, the source holds several entries; their conditions need not be identical. Identical values can stand only once. Results filed as inconclusive are left out.

`CC(C)NCC(=O)c1ccc(O)c(O)c1`: the T/C under setting [1] was 107 % of control; the T/C under setting [2] was 114 % of control; the T/C under setting [3] is 114 % of control; the T/C (endpoint: median survival time, dose: 40.0 mg/kg/injection, schedule: Q01DX009 (ip), vehicle: saline, higher = longer survival) was 111 % of control.
Take `CN(N=O)C(=O)NC1CCOCC1`: the T/C (endpoint: median survival time, dose: 475.0 mg/kg/injection, schedule: Q01DX001 (ip), vehicle: saline with Tween-80, higher = longer survival) was 108 % of control.
Turning to `O=C1C=CC2(CCC23C=CC(=O)O3)O1` (stereo not drawn), the T/C is 102 % of control (endpoint: mean tumor weight, dose: 13.0 mg/kg/injection, schedule: Q01DX011 (ip), vehicle: saline, higher = larger tumour); 85 % of control (endpoint: mean tumor weight, dose: 30.0 mg/kg/injection, schedule: Q01DX011 (ip), vehicle: saline, higher = larger tumour); 80 % of control and 83 % of control (endpoint: mean tumor weight, dose: 45.0 mg/kg/injection, schedule: Q01DX011 (ip), vehicle: saline, higher = larger tumour); 66 % of control (endpoint: mean tumor weight, dose: 65.0 mg/kg/injection, schedule: Q01DX011 (ip), vehicle: saline, higher = larger tumour).
With `NC(Cc1cc(I)c(Oc2ccc(O)c(I)c2)c(I)c1)C(=O)O` (stereo not drawn), the T/C is, setting by setting: (endpoint: mean tumor weight, dose: 25.0 micrograms/kg/injection, schedule: Q01DX011 (ip), vehicle: saline, higher = larger tumour) 93 % of control; (endpoint: mean tumor weight, dose: 100.0 micrograms/kg/injection, schedule: Q01DX011 (ip), vehicle: saline, higher = larger tumour) 115 % of control; (endpoint: mean tumor weight, dose: 200.0 micrograms/kg/injection, schedule: Q01DX011 (ip), vehicle: saline, higher = larger tumour) 118 % of control.
As for `CC(=O)[O][Hg][c]1c(C)c(C)c(C)c(C)c1C`, the T/C (endpoint: median survival time, dose: 0.62 mg/kg/injection, schedule: Q01DX009 (ip), vehicle: Klucel (hydroxypropylcellulose) (HPC), higher = longer survival) was 93 % of control; the T/C (endpoint: median survival time, dose: 1.25 mg/kg/injection, schedule: Q01DX009 (ip), vehicle: Klucel (hydroxypropylcellulose) (HPC), higher = longer survival) was 93 % of control; the T/C (endpoint: median survival time, dose: 2.5 mg/kg/injection, schedule: Q01DX009 (ip), vehicle: Klucel (hydroxypropylcellulose) (HPC), higher = longer survival) was 100 % of control; the T/C (endpoint: median survival time, dose: 5.0 mg/kg/injection, schedule: Q01DX009 (ip), vehicle: Klucel (hydroxypropylcellulose) (HPC), higher = longer survival) is 105 % of control; the T/C (endpoint: median survival time, dose: 6.0 mg/kg/injection, schedule: Q01DX009 (ip), vehicle: Klucel (hydroxypropylcellulose) (HPC), higher = longer survival) was 92 % of control; the T/C under setting [4] was 92 % of control.
For the compound `CC1=C(/C=C/C(C)=C/C=C/C(C)=C/CO)C(C)(C)CCC1`, the T/C by setting is: (endpoint: median survival time, dose: 4.0 mg/kg/injection, schedule: Q01DX005 (ip), vehicle: saline with Tween-80, higher = longer survival) 108 % of control; (endpoint: median survival time, dose: 12.5 mg/kg/injection, schedule: Q01DX005 (ip), vehicle: saline with Tween-80, higher = longer survival) 109 % of control; (endpoint: median survival time, dose: 16.0 mg/kg/injection, schedule: Q01DX005 (ip), vehicle: saline with Tween-80, higher = longer survival) 111 % of control; (endpoint: median survival time, dose: 32.0 mg/kg/injection, schedule: Q01DX005 (ip), vehicle: saline with Tween-80, higher = longer survival) 115 % of control; (endpoint: median survival time, dose: 64.0 mg/kg/injection, schedule: Q01DX005 (ip), vehicle: saline with Tween-80, higher = longer survival) 191 % of control; (endpoint: median survival time, dose: 128.0 mg/kg/injection, schedule: Q01DX005 (ip), vehicle: saline with Tween-80, higher = longer survival) 92 % of control.
In the case of `Cc1cc(O)c(C(C)C)cc1S(=O)(=O)O` (tested in a mixture with another compound), the T/C is 95 % of control (endpoint: mean tumor weight, dose: 25.0 mg/kg/injection, schedule: Q01DX011 (ip), vehicle: other, higher = larger tumour); 105 % of control (endpoint: mean tumor weight, dose: 50.0 mg/kg/injection, schedule: Q01DX011 (ip), vehicle: other, higher = larger tumour); 114 % of control (endpoint: mean tumor weight, dose: 100.0 mg/kg/injection, schedule: Q01DX011 (ip), vehicle: other, higher = larger tumour); 98 % of control (endpoint: mean tumor weight, dose: 200.0 mg/kg/injection, schedule: Q01DX011 (ip), vehicle: other, higher = larger tumour).
`NC(=S)c1cn(C2OC(CO)C(O)C2O)c2ncnc(N)c12` (stereo not drawn): the T/C reads like this: (endpoint: median survival time, dose: 0.31 mg/kg/injection, schedule: Q01DX009 (ip), vehicle: saline with Tween-80, higher = longer survival) 111 % of control; (endpoint: median survival time, dose: 0.62 mg/kg/injection, schedule: Q01DX009 (ip), vehicle: saline with Tween-80, higher = longer survival) 88 % of control; (endpoint: median survival time, dose: 2.5 mg/kg/injection, schedule: Q01DX009 (ip), vehicle: saline with Tween-80, higher = longer survival) 94 % of control and 101 % of control; (endpoint: median survival time, dose: 5.0 mg/kg/injection, schedule: Q01DX009 (ip), vehicle: saline with Tween-80, higher = longer survival) 101 % of control.
As for `CC(C)(C)c1ccc(CN2CCN(C(c3ccccc3)c3ccc(Cl)cc3)CC2)cc1` (stereo not drawn), the T/C reads like this: (endpoint: median survival time, dose: 0.5 mg/kg/injection, schedule: Q01DX009 (ip), vehicle: saline with Tween-80, higher = longer survival) 112 % of control; (endpoint: median survival time, dose: 2.0 mg/kg/injection, schedule: Q01DX009 (ip), vehicle: saline with Tween-80, higher = longer survival) 112 % of control and 155 % of control and 233 % of control.
For `CC(C)=CCC/C(C)=C/CO`, the T/C was 74 % of control (endpoint: mean tumor weight, dose: 3.9 mg/kg/injection, schedule: Q01DX011 (ip), vehicle: saline, higher = larger tumour); 85 % of control (endpoint: mean tumor weight, dose: 7.8 mg/kg/injection, schedule: Q01DX011 (ip), vehicle: saline, higher = larger tumour); 71 % of control (endpoint: mean tumor weight, dose: 15.6 mg/kg/injection, schedule: Q01DX011 (ip), vehicle: saline, higher = larger tumour); 68 % of control and 73 % of control (endpoint: mean tumor weight, dose: 31.3 mg/kg/injection, schedule: Q01DX011 (ip), vehicle: saline, higher = larger tumour); 105 % of control (endpoint: mean tumor weight, dose: 62.5 mg/kg/injection, schedule: Q01DX011 (ip), vehicle: saline, higher = larger tumour).
For the compound `C[N+](C)(C)CCOC(=O)/C=C/c1cnc[nH]1`, the T/C by setting is: under setting [1], 102 % of control; under setting [2], 94 % of control; under setting [3], 95 % of control.
For `C1=CC2(OCCO2)C2CC=CC3(OCCO3)C2C1` (stereo not drawn), the T/C is, setting by setting: under setting [4], 88 % of control; under setting [5], 100 % of control; under setting [6], 95 % of control and 97 % of control; (endpoint: median survival time, dose: 50.0 mg/kg/injection, schedule: Q01DX009 (ip), vehicle: Klucel (hydroxypropylcellulose) (HPC), higher = longer survival) 93 % of control; (endpoint: median survival time, dose: 100.0 mg/kg/injection, schedule: Q01DX009 (ip), vehicle: Klucel (hydroxypropylcellulose) (HPC), higher = longer survival) 106 % of control.
For the compound `Nc1nc(N)c2nc(CN(CCO)c3ccc(C(=O)NC(CCC(=O)O)C(=O)O)cc3)cnc2n1` (stereo not drawn), the T/C is 96 % of control (endpoint: median survival time, dose: 0.25 mg/kg/injection, schedule: Q01DX009 (ip), vehicle: Klucel (hydroxypropylcellulose) (HPC), higher = longer survival); 107 % of control (endpoint: median survival time, dose: 0.5 mg/kg/injection, schedule: Q01DX009 (ip), vehicle: Klucel (hydroxypropylcellulose) (HPC), higher = longer survival); 108 % of control (endpoint: median survival time, dose: 1.0 mg/kg/injection, schedule: Q01DX009 (ip), vehicle: Klucel (hydroxypropylcellulose) (HPC), higher = longer survival); 89 % of control (endpoint: median survival time, dose: 2.0 mg/kg/injection, schedule: Q01DX009 (ip), vehicle: Klucel (hydroxypropylcellulose) (HPC), higher = longer survival).
Consider `CCCCCC/C=C/[N+]([O-])=NC(COC)C(C)O` (stereo not drawn), for which the T/C runs as follows: (endpoint: mean tumor weight, dose: 5.0 mg/kg/injection, schedule: Q01DX011 (ip), vehicle: carboxymethylcellulose (CMC), higher = larger tumour) 84 % of control; (endpoint: mean tumor weight, dose: 10.0 mg/kg/injection, schedule: Q01DX011 (ip), vehicle: carboxymethylcellulose (CMC), higher = larger tumour) 96 % of control.
For the compound `N#Cc1ccc(NC(=O)N(CCCl)N=O)cc1`, the T/C is 83 % of control (endpoint: median tumor weight (est.), dose: 13.0 mg/kg/injection, schedule: Q01DX001 (ip), vehicle: Klucel (hydroxypropylcellulose) (HPC), higher = larger tumour); 118 % of control (endpoint: median tumor weight (est.), dose: 19.0 mg/kg/injection, schedule: Q01DX001 (ip), vehicle: Klucel (hydroxypropylcellulose) (HPC), higher = larger tumour); 109 % of control (endpoint: median tumor weight (est.), dose: 29.0 mg/kg/injection, schedule: Q01DX001 (ip), vehicle: Klucel (hydroxypropylcellulose) (HPC), higher = larger tumour); 73 % of control (endpoint: median tumor weight (est.), dose: 44.0 mg/kg/injection, schedule: Q01DX001 (ip), vehicle: Klucel (hydroxypropylcellulose) (HPC), higher = larger tumour); 39 % of control (endpoint: median tumor weight (est.), dose: 67.0 mg/kg/injection, schedule: Q01DX001 (ip), vehicle: Klucel (hydroxypropylcellulose) (HPC), higher = larger tumour).
For `CC1=C(/C=C/C(C)=C/C=C/C(C)=C/C(=O)O)C(C)(C)CCC1`, the T/C reads like this: (endpoint: median survival time, dose: 6.25 mg/kg/injection, schedule: Q01DX005 (ip), vehicle: saline with Tween-80, higher = longer survival) 109 % of control; (endpoint: median survival time, dose: 8.0 mg/kg/injection, schedule: Q01DX009 (ip), vehicle: saline with Tween-80, higher = longer survival) 102 % of control; (endpoint: median survival time, dose: 16.0 mg/kg/injection, schedule: Q01DX009 (ip), vehicle: saline with Tween-80, higher = longer survival) 93 % of control; (endpoint: median survival time, dose: 32.0 mg/kg/injection, schedule: Q01DX009 (ip), vehicle: saline with Tween-80, higher = longer survival) 93 % of control.
As for `CC(C)=CCC/C(C)=C/CNCCc1c[nH]c2ccccc12`, the T/C under setting [4] was 100 % of control, the T/C under setting [5] was 101 % of control and the T/C under setting [6] was 97 % of control.
For the compound `O=C(O)CCc1c[nH]c2ccc(N(CCCl)CCCl)cc12`, the T/C (endpoint: mean tumor weight, dose: 0.7 mg/kg/injection, schedule: Q01DX011 (ip), vehicle: carboxymethylcellulose (CMC), higher = larger tumour) is 74 % of control; the T/C (endpoint: mean tumor weight, dose: 1.5 mg/kg/injection, schedule: Q01DX011 (ip), vehicle: carboxymethylcellulose (CMC), higher = larger tumour) is 79 % of control; the T/C (endpoint: mean tumor weight, dose: 3.0 mg/kg/injection, schedule: Q01DX011 (ip), vehicle: carboxymethylcellulose (CMC), higher = larger tumour) is 51 % of control.
